According to US20240082286A1, “COMBINATION THERAPIES FOR TREATMENT OF T-CELL LYMPHOMAS” (Otsuka Pharmaceutical Co., Ltd., priority 2022, published 2024):

How the values were obtained:
CT26 cells = test: Lytic cell death by real-time microscopy (IncuCyte) in CT26 control and RIPK3 re-expressed CT26 cells; type: cell-based, mouse; settings: 1 μM tolinapant; RIPK3 re-expressed CT26 cells versus CT26 control cells; FIG. 1B
Procedure: CRISPR activation (CRISPRa) was used to re-express RIPK3 in the CT26 line (from ATCC) (FIG. 1A). […] The lytic cell death upon treatment of tolinapant was measured for the CT26 control cells and the RIPK3 re-expressed CT26 cells, by real-time microscopy (IncuCyte) assays (FIG. 1B).

clAP1 = test: Western blotting of BW5147.G.1.4 lysates, clAP1; type: cell-based, mouse; settings: 48 hours, when tolinapant was added to decitabine, FIG. 8
Procedure: After 48 hours, the cell was lysated and interferon signaling and PD markers were analyzed by Western blotting, as shown in FIG. 8. From the western blot, it was confirmed that the expression of DNMT1 was reduced as the concentration of decitabine increased, and the expression of clAP1 was suppressed when tolinapant was added.

RIPK3 [1] = test: RIPK3 expression by western blot after decitabine treatment, Karpas-299 cells; type: cell-based, human; settings: 0.01, 0.1, 1 μM decitabine for 4 days, FIG. 2
RIPK3 [2] = test: RIPK3 expression by western blot after decitabine treatment, CT26 cells; type: cell-based, mouse; settings: 0.01, 0.1, 1 μM decitabine for 2 days, FIG. 2
Procedure: Two types of mouse cell lines (BW5147.G.1.4, a T cell lymphoma from DSMZ (Braunschweig, Germany) and CT26) were treated with 0.01, 0.1, 1 μM or no decitabine (DAC) for 2 days.

RIPK3 gene promoter = test: Methylation status of RIPK3 gene by pyrosequencing (EpigenDX); type: cell-based, human; settings: H9, Karpas-299, Sup-M2, Sup-T1 cell lines; 0.01, 0.1, 1 μM decitabine for 4 days; FIG. 3 B and C
Procedure: The DNA of human H9, Karpas-299, Sup-M2 (from DSMZ), and Sup-T1 (from ECACC) cell lines were sequenced to identify methylation status of the RIPK3 gene by pyrosequencing (EpigenDX). […] These cell lines were treated with 0.01, 0.1, and 1 μM decitabine (DAC) for 4 days, and DNA of the cells were sequenced to identify methylation status of the RIPK3 gene by pyrosequencing (EpigenDX).

LINE-1 = test: Methylation level of LINE-1 after decitabine treatment; type: cell-based, human; settings: 0.01, 0.1, 1 μM decitabine for 4 days; FIG. 3 D
H9 cells = test: IFNγ release, electrochemiluminescence immunoassay (Meso Scale Discovery); type: cell-based, human; settings: decitabine alone 0.001-10 μM for 48 hours; FIG. 4
Procedure: Human T-cell lymphoma (H9) cell line was treated with decitabine (DAC) (0.001, 0.003, 0.01, 0.03, 0.1, 0.3, 1, 3 and 10 μM) for 48 hours, and the release of IFNγ was measured an electrochemiluminescence immunoassay (Meso Scale Discovery). […] Thus, the treatment by decitabine will potentially result in improved response rate to the tolinapant treatment.

DNMT1 = test: Western blotting of BW5147.G.1.4 lysates, DNMT1; type: cell-based, mouse; settings: 48 hours, as the concentration of decitabine increased, FIG. 8
Procedure: After 48 hours, the cell was lysated and interferon signaling and PD markers were analyzed by Western blotting, as shown in FIG. 8.

[3] = tested on: KARPAS-299 xenograft mouse model; test: Gene expression changes in KARPAS-299 xenografts; type: in vivo; settings: treated for five days, FIG. 12
Procedure: KARPAS-299 xenograft mouse model was prepared by injecting KARPAS-299 cells. The mice bearing the KARPAS-299 xenografts were treated with decitabine (DAC) and/or tolinapant for five days. The tumor cells were collected and analyzed for gene expression changes (FIG. 12).

RIPK3 [4] = test: RIPK3 western blotting of KARPAS-299 xenograft cell lysates; type: in vivo, mouse; settings: five days treatment, FIG. 13

Structure (SMILES) | lytic cell death upon treatment of tolinapant (CT26 cells) | expression of clAP1 (clAP1) | RIPK3 expression (RIPK3 [1]) | RIPK3 expression (RIPK3 [2]) | methylation of RIPK3 gene promoter (RIPK3 gene promoter) | methylation of LINE-1 (LINE-1) | IFNγ released from H9 cells (H9 cells) | expression of DNMT1 (DNMT1) | gene expression changes in tumor cells [3] | RIPK3 re-expression by western blotting (RIPK3 [4])
C[C@@H]1CN(CC(=O)N2CC(C)(C)c3nc(CO)c(Cc4ccc(F)cc4)cc32)[C@@H](CN2CCOC[C@H]2C)CN1 [tolinapant, 1-(6-(4-fluorobenzyl)-5-(hydroxymethyl)-3,3-dimethyl-2,3-dihydro-1H-pyrrolo[3,2-b]pyridin-1-yl)-2-((2R,5R)-5-methyl-2-(((R)-3-methylmorpholino)methyl)piperazin-1-yl)ethan-1-one] | higher lytic cell death | suppressed | – | – | – | – | – | – | – | –
Nc1ncn([C@H]2C[C@H](O)[C@@H](CO)O2)c(=O)n1 [decitabine, 5-aza-2′-deoxycytidine] | – | – | RIPK3 expression was detected | RIPK3 expression was detected | demethylation of RIPK3 gene promoter | demethylation of LINE-1 | increased | reduced | upregulation of interferons, and other cytokines/chemokines and cancer testis antigens | re-expression of RIPK3 was also confirmed
